Here are results for 1 compound from article PMC3706879, “The neurotrophic compound J147 reverses cognitive impairment in aged Alzheimer's disease mice” (Alzheimer's Research & Therapy, 2013).

The target in data set [1] is T1, monoamine oxidase B (MAO B) (Homo sapiens, UniProt P27338).
T1 sequence (P27338 1-520): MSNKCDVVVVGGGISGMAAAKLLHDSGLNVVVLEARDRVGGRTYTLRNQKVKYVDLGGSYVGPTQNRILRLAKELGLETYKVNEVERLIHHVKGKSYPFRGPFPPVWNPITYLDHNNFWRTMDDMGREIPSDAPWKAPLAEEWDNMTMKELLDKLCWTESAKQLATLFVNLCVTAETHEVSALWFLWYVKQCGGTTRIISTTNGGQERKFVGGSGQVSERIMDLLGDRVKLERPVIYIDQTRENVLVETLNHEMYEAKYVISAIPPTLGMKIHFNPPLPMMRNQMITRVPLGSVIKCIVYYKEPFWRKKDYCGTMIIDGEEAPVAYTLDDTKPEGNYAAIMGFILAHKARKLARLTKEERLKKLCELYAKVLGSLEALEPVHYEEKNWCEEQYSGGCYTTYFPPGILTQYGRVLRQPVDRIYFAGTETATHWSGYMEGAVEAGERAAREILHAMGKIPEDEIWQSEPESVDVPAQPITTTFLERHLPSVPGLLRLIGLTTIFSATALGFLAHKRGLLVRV
The data set can be described thus: monoamine oxidase B assay (MDS Pharma Services). Type of data set: biochemical. As for the experimental part: All screening was done at 10 μM J147 by various contract research organizations (CROs), including MDS Pharma Services (King of Prussia, PA, USA), Ricerca, now Panlabs (Concord, OH, USA), Ambit (La Jolla, CA, USA), Caliper (Hopkinton, MA, USA) and NovaScreen Biosciences (Hanover, MD, USA) by standard protocols described in their catalogs.

In data set [2] the test system is Rats. The data set is described as follows: acute toxicity in rats (Absorption Systems). Type of data set: in vivo. The following applies: 2 g/kg. As for the experimental part:
The pharmacokinetics of J147 in the mouse brain and plasma were evaluated using standard procedures. Blood and brain distribution of J147 following per oral (PO) administration was plotted for mice as a function of time (Figure 5). […] Additional de-risking and target identification screens were carried out at 10 μM J147 by various CROs (Table 2). […] All original data are available upon request.

Data set [3] has as its system C57BL/6J mice. The data set is described as follows: two-day water maze, scopolamine induced memory impairment. Type of data set: in vivo. The settings on record: scopolamine 1 mg/kg i.p.; J147 200 ppm, donepezil 20 ppm in food for two weeks. As for the experimental part: (§1) A total of 60 male mice aged eight weeks were housed 4 per cage and were divided into five groups with 12 mice per group. Treatments were administered in the food (TestDiet® 5015, Richmond, IN, USA) for a period of two weeks before commencement of behavioral testing. […] Following two weeks of treatment, memory impairment was induced by intraperitoneal (i.p.) injection of scopolamine (1 mg/kg) 30 minutes prior to each of the following behavioral tests: Y-maze, probe trial of the water maze and contextual and cued fear conditioning. Mice were allowed to rest for two days between each behavior test. All mice received scopolamine except for one of the control groups, which received saline as a control. Mice were sacrificed 24 hours after the last behavioral test for tissue harvesting.
Spatial memory was determined using the two-day water maze in 23-month-old huAPPswe/PS1 transgenic mice fed J147 at 200 ppm in food for the previous three months. The protocol was adapted from a publication by Gulinello and colleagues. Water temperature remained at 27°C throughout the experiment. […] The time it took each mouse to find the hidden platform was measured as escape latency. […] All trials were recorded using the EthoVision Software and statistics were computed using GraphPad Instat software (GraphPad Software, San Diego, CA, USA).

Data set [4] deals with C57BL/6J mice. The data set can be described thus: fear conditioning, scopolamine induced memory impairment. Type of data set: in vivo. The settings on record: scopolamine 1 mg/kg i.p.; J147 200 ppm, donepezil 20 ppm in food; vs scopolamine. As for the experimental part:
as §1
Fear conditioning to either a cue or a context represents a form of associative learning. The read-out that is measured in contextual and cued fear conditioning is a freezing response that occurs following the pairing of an unconditioned stimulus (US), such as a foot shock, with a conditioned stimulus (CS), such as a particular context or cue (tone). The mouse will freeze if it remembers and associates that environment with the aversive stimulus. The hippocampus and the amygdala are required for fear memory where the hippocampus is involved in the formation and retrieval of context fear associations and the amygdala is involved in conditioning and recall of associations to contextual and discrete cues. This assay used fear conditioning chambers from Med Associates Inc. with Video Freeze Software (Med Associates Inc, St. Albans, VT, USA). On Day 1, mice were trained by allowing them to explore the chamber for 120 sec, mice were then presented with a 30-sec tone (2 kHz with 85 dB intensity) immediately followed by a 2-sec foot shock (0.7 mA). The tone-shock pairing was repeated following a 30-sec interval and the mice were again allowed to explore for 120 sec before removing them from the chamber. On Day 2, contextual memory, which requires a functioning hippocampus, was tested by placing the mice in the chambers and allowing them to explore for the same length of time as the previous day but without the tone and the shock. On Day 3, cued or emotional memory was tested, which relies on both hippocampus and amygdala. […] On Day 2, the time spent freezing is measured over the entire time in the chamber. […] The percentage of time spent freezing by each mouse is averaged per group and then groups can be compared and P-values calculated to determine statistical significance. On Day 3, the percentage of time spent freezing during the two tones is averaged per group, and then groups can be compared and P-values calculated to determine statistical significance. […]

The subject of data set [5] is normal rodents. More on the design: method as in PMID 22194796. The following applies: cited from earlier work.
Data set [6] concerns BDNF. Also noted: method as in PMID 22194796. The following applies: normal rats; cited from earlier work.

Regarding `COc1cccc(/C=N/N(C(=O)C(F)(F)F)c2ccc(C)cc2C)c1` [J147, (E)-N-(2,4-dimethylphenyl)-2,2,2-trifluoro-N'-(3methoxybenzyli-dene) acetohydrazide], the “inhibition, monoamine oxidase B” value in data set [1] (10 μM J147) is reported as “greater than 60%”. Moreover, it took 1880 nM to reach a half-maximal effect in data set [1] (dose response, re-assay after screening) (EC50). Also, the acute toxicity result in data set [2] is “negative results”. The “spatial memory (time to find hidden platform)” value in data set [3] is listed as “rescued this deficit in spatial memory”. Besides, in data set [4], the “contextual memory (freezing Day 2)” value is “it was not significant” and the “cued memory (freezing in response to the tone, Day 3)” value is on record as “neither effect was significant”. The “memory in normal rodents” value in data set [5] is reported as “facilitates memory in normal rodents”. In data set [6], the “levels of BDNF in the hippocampus” value is “increases the levels of BDNF”.

A word on the EC50: it is the concentration that produces a half-maximal response. High values mean weaker potency, low ones greater potency.
